Laboratory results from BindingDB's records for patent US20240217978 (Chong Kun Dang Pharmaceutical, 2024).

These compounds were tested against Adenosine receptor A2a (Homo sapiens, UniProt P29274) (assay: Evaluation of A2a Receptor Binding Affinity).
Method: A radioligand binding test was conducted by using [3H]-NECA (5′-N-[adenine-2,8-3H]-ethylcarboxamidoadenosine) and an adenosine A2a membrane. As the adenosine A2a membrane, a cell membrane prepared from HEK-293 cells transfected with human adenosine A2a receptor was used. The membrane used for the test was prepared by incubating with a radioligand until equilibrium was reached. In order to separate the radioligand-bound membrane, the unbound radioligand was separated by using Packard filtermate Harverster and glass filter plates.10 μL of test compound dissolved in binding buffer (50 mM Tris, 10 mM MgCl2, 1 mM EDTA pH 7.4) and 20 μL of [3H]-NECA (final concentration of 37 nM) or reference inhibitor was mixed with 20 μL of A2a membrane in an unbound 96-well plate and incubated at room temperature for one hour. Prior to filtration, a 96-well harvest filter plate was coated with 0.33% polyethylenimine for 30 minutes and then washed with assay buffer. The binding reaction was transferred to the filter plate and washed three times with wash buffer. The dish was then dried, scintillant was added, and radioactivity was counted in a scintillation counter (Topcount NXT, Packard).

Sequence of Adenosine receptor A2a (P29274 whole entry): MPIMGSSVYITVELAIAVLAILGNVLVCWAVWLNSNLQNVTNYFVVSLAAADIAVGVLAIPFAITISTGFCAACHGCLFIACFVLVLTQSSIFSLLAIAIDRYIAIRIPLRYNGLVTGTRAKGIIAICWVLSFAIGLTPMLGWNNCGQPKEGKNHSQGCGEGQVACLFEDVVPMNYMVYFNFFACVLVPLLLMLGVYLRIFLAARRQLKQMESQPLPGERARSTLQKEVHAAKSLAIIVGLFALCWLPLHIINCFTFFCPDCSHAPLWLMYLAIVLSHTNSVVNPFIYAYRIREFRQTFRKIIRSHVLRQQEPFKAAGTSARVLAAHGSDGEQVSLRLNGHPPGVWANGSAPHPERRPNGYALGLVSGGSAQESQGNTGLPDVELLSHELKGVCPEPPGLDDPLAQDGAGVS

IC50 | SMILES
12 nM | Nc1nc(N2CCC[C@H]2C(=O)N2CCCN(c3ncccn3)CC2)nc2nc(-c3ccco3)nn12 [US20240217978, Example 277]
10 nM | CCNC(=O)N1CCN(C(=O)[C@@H]2CCCN2c2nc(N)n3nc(-c4ccco4)nc3n2)CC1 [US20240217978, Example 115]
2 nM | Nc1nc(N2CCC[C@H]2C(=O)N2CCC(C(=O)Nc3cccc(F)c3)CC2)nc2nc(-c3ccco3)nn12 [US20240217978, Example 130]
